Earlier results on 2 compounds are cited in patent publication US20030212112A1, “Method for administering a phosphodiesterase 4 inhibitor” (SmithKline Beecham Corporation, priority 1999, published 2003).

The conditions of the series: clinical studies / indications reported in background.

In the case of `CCCCn1c(=O)c2c(ncn2CC(C)=O)n(CCCC)c1=O` [denbufylline], the side effects result was “may include pyrosis, nausea and emesis”. Regarding `COc1ccc(C2CNC(=O)C2)cc1OC1CCCC1` (centres unmarked) [rolipram], the side effects result is “psychotropic activity and produces gastrointestinal effects”.
